Legend:
[1] = tested on: bedstraw; test: Test B pre/postemergence bedstraw; assay type: in vivo, Galium aparine; conditions: for Bedstraw plant response rating: scale of 0 to 10 where 0 is no effect and 10 is complete control
Summary of the method: (§1)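 Test chemicals in a non-phytotoxic solvent mixture with surfactant were sprayed preemergence onto planted seeds and postemergence onto plants 2 to 18 cm tall (1- to 4-leaf stage). After twelve to sixteen days in a greenhouse, injury was visually rated against untreated controls from 0 (no effect) to 10 (complete control).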

[2] = tested on: blackgrass; test: Test B pre/postemergence blackgrass; assay type: in vivo, Alopecurus myosuroides; conditions: for Blackgrass plant response rating: scale of 0 to 10 where 0 is no effect and 10 is complete control
Summary of the method: as §1

[3] = tested on: surinam grass; test: Test B pre/postemergence surinam grass; assay type: in vivo, Brachiaria decumbens; conditions: for B. signalgrass plant response rating: scale of 0 to 10 where 0 is no effect and 10 is complete control
Summary of the method: as §1

[4] = tested on: cocklebur; test: Test B pre/postemergence cocklebur; assay type: in vivo, Xanthium strumarium; conditions: for Cocklebur plant response rating: scale of 0 to 10 where 0 is no effect and 10 is complete control
Summary of the method: as §1

[5] = tested on: corn; test: Test B pre/postemergence corn; assay type: in vivo, Zea mays; conditions: for Corn plant response rating: scale of 0 to 10 where 0 is no effect and 10 is complete control
Summary of the method: as §1

[6] = tested on: crabgrass; test: Test B pre/postemergence crabgrass; assay type: in vivo, Digitaria sanguinalis; conditions: for Crabgrass plant response rating: scale of 0 to 10 where 0 is no effect and 10 is complete control
Summary of the method: as §1

[7] = tested on: giant foxtail; test: Test B pre/postemergence giant foxtail; assay type: in vivo, Setaria faberii; conditions: for Giant foxtail plant response rating: scale of 0 to 10 where 0 is no effect and 10 is complete control
Summary of the method: as §1

[8] = tested on: morningglory; test: Test B pre/postemergence morningglory; assay type: in vivo, Ipomoea hederacea; conditions: for Morningglory plant response rating: scale of 0 to 10 where 0 is no effect and 10 is complete control
Summary of the method: as §1

[9] = tested on: pigweed; test: Test B pre/postemergence pigweed; assay type: in vivo, Amaranthus retroflexus; conditions: for Redroot pigweed plant response rating: scale of 0 to 10 where 0 is no effect and 10 is complete control
Summary of the method: as §1

[10] = tested on: rape; test: Test B pre/postemergence rape; assay type: in vivo, Brassica napus; conditions: for Rape plant response rating: scale of 0 to 10 where 0 is no effect and 10 is complete control
Summary of the method: as §1

[11] = tested on: soybean; test: Test B pre/postemergence soybean; assay type: in vivo, Glycine max; conditions: for Soybean plant response rating: scale of 0 to 10 where 0 is no effect and 10 is complete control
Summary of the method: as §1

[12] = tested on: sugar beet; test: Test B pre/postemergence sugar beet; assay type: in vivo, Beta vulgaris; conditions: for Sugarbeets plant response rating: scale of 0 to 10 where 0 is no effect and 10 is complete control
Summary of the method: as §1

[13] = tested on: velvetleaf; test: Test B pre/postemergence velvetleaf; assay type: in vivo, Abutilon theophrasti; conditions: for Velvetleaf plant response rating: scale of 0 to 10 where 0 is no effect and 10 is complete control
Summary of the method: as §1

[14] = tested on: wheat; test: Test B pre/postemergence wheat; assay type: in vivo, Triticum aestivum; conditions: for Wheat plant response rating: scale of 0 to 10 where 0 is no effect and 10 is complete control
Summary of the method: as §1

[15] = tested on: wild oat; test: Test B pre/postemergence wild oat; assay type: in vivo, Avena fatua; conditions: for Wild oats plant response rating: scale of 0 to 10 where 0 is no effect and 10 is complete control
Summary of the method: as §1

[16] = tested on: purple nutsedge; test: Test B pre/postemergence purple nutsedge; assay type: in vivo, Cyperus rotundus; conditions: for Nutsedge plant response rating: scale of 0 to 10 where 0 is no effect and 10 is complete control
Summary of the method: as §1

[17] = Postemergence, Rate 125 g/ha, scale 0 to 10, 0 is no effect, 10 is complete control
[18] = Postemergence, Rate 250 g/ha, scale 0 to 10, 0 is no effect, 10 is complete control
[19] = Preemergence, Rate 62 g/ha, scale 0 to 10 (0 no effect, 10 complete control)
[20] = Rate 500 g/ha, Postemergence, scale 0 to 10, 0 no effect, 10 complete control

## CC(C)N(C(=O)n1oc(=O)n(C2(C)CC2)c1=O)c1ccc(F)cc1F [Compound 363]
[1]; [17]
  Plant response rating, Bedstraw: 4
[1]; [18]
  Plant response rating, Bedstraw: 7
[1]; [19]
  Plant response rating, Bedstraw: 9
[1]; Preemergence, Rate 125 g/ha
  Bedstraw plant response rating (0 to 10 scale): 9
[1]; Preemergence, Rate 250 g/ha
  Bedstraw plant response rating: 10
[1]; Preemergence, Rate 500 g/ha
  Bedstraw plant response rating: 10
[1]; Rate 62 g/ha, Postemergence
  Bedstraw plant response rating: 4
[1]; [20]
  Plant response rating, Bedstraw: 9
[2]; [17]
  Plant response rating, Blackgrass: 7
[2]; [18]
  Plant response rating, Blackgrass: 7
[2]; [19]
  Plant response rating, Blackgrass: 8
[2]; Preemergence, Rate 125 g/ha
  Blackgrass plant response rating (0 to 10 scale): 10
[2]; Preemergence, Rate 250 g/ha
  Blackgrass plant response rating: 10
[2]; Preemergence, Rate 500 g/ha
  Blackgrass plant response rating: 10
[2]; Rate 62 g/ha, Postemergence
  Blackgrass plant response rating: 5
[2]; [20]
  Plant response rating, Blackgrass: 8
[3]; [17]
  Plant response rating, B. signalgrass: 0
[3]; [18]
  Plant response rating, B. signalgrass: 1
[3]; [19]
  Plant response rating, B. signalgrass: 3
[3]; Preemergence, Rate 125 g/ha
  B. signalgrass plant response rating (0 to 10 scale, 0 is no effect, 10 is complete control): 3
[3]; Preemergence, Rate 250 g/ha
  B. signalgrass plant response rating: 5
[3]; Preemergence, Rate 500 g/ha
  B. signalgrass plant response rating: 6
[3]; Rate 62 g/ha, Postemergence
  B. signalgrass plant response rating: 0
[3]; [20]
  Plant response rating, B. signalgrass: 5
[4]; [17]
  Plant response rating, Cocklebur: 0
[4]; [18]
  Plant response rating, Cocklebur: 2
[4]; [19]
  Plant response rating, Cocklebur: 0
[4]; Preemergence, Rate 125 g/ha
  Cocklebur plant response rating (0 to 10 scale): 0
[4]; Preemergence, Rate 250 g/ha
  Cocklebur plant response rating: 0
[4]; Preemergence, Rate 500 g/ha
  Cocklebur plant response rating: 0
[4]; Rate 62 g/ha, Postemergence
  Cocklebur plant response rating: 0
[4]; [20]
  Plant response rating, Cocklebur: 2
[5]; [17]
  Plant response rating, Corn: 0
[5]; [18]
  Plant response rating, Corn: 2
[5]; [19]
  Plant response rating, Corn: 0
[5]; Preemergence, Rate 125 g/ha
  Corn plant response rating (0 to 10 scale): 0
[5]; Preemergence, Rate 250 g/ha
  Corn plant response rating: 3
[5]; Preemergence, Rate 500 g/ha
  Corn plant response rating: 7
[5]; Rate 62 g/ha, Postemergence
  Corn plant response rating: 0
[5]; [20]
  Plant response rating, Corn: 6
[6]; [17]
  Plant response rating, Crabgrass: 2
[6]; [18]
  Plant response rating, Crabgrass: 5
[6]; [19]
  Plant response rating, Crabgrass: 3
[6]; Preemergence, Rate 125 g/ha
  Crabgrass plant response rating (0 to 10 scale): 7
[6]; Preemergence, Rate 250 g/ha
  Crabgrass plant response rating: 7
[6]; Preemergence, Rate 500 g/ha
  Crabgrass plant response rating: 9
[6]; Rate 62 g/ha, Postemergence
  Crabgrass plant response rating: 1
[6]; [20]
  Plant response rating, Crabgrass: 9
[7]; [17]
  Plant response rating, Giant foxtail: 4
[7]; [18]
  Plant response rating, Giant foxtail: 9
[7]; Preemergence, Rate 125 g/ha
  Giant foxtail plant response rating (0 to 10 scale): 10
[7]; Preemergence, Rate 250 g/ha
  Giant foxtail plant response rating: 10
[7]; Preemergence, Rate 500 g/ha
  Giant foxtail plant response rating: 10
[7]; Rate 62 g/ha, Postemergence
  Giant foxtail plant response rating: 4
[7]; [20]
  Plant response rating, Giant foxtail: 9
[8]; [17]
  Plant response rating, Morningglory: 1
[8]; [18]
  Plant response rating, Morningglory: 1
[8]; [19]
  Plant response rating, Morningglory: 0
[8]; Preemergence, Rate 125 g/ha
  Morningglory plant response rating (0 to 10 scale): 0
[8]; Preemergence, Rate 250 g/ha
  Morningglory plant response rating: 5
[8]; Preemergence, Rate 500 g/ha
  Morningglory plant response rating: 6
[8]; Rate 62 g/ha, Postemergence
  Morningglory plant response rating: 1
[8]; [20]
  Plant response rating, Morningglory: 3
[9]; [17]
  Plant response rating, Redroot pigweed: 0
[9]; [18]
  Plant response rating, Redroot pigweed: 2
[9]; [19]
  Plant response rating, Redroot pigweed: 2
[9]; Preemergence, Rate 125 g/ha
  Redroot pigweed plant response rating (0 to 10 scale): 3
[9]; Preemergence, Rate 250 g/ha
  Redroot pigweed plant response rating: 7
[9]; Preemergence, Rate 500 g/ha
  Redroot pigweed plant response rating: 10
[9]; Rate 62 g/ha, Postemergence
  Redroot pigweed plant response rating: 0
[9]; [20]
  Plant response rating, Redroot pigweed: 5
[10]; [17]
  Plant response rating, Rape: 0
[10]; [18]
  Plant response rating, Rape: 0
[10]; [19]
  Plant response rating, Rape: 0
[10]; Preemergence, Rate 125 g/ha
  Rape plant response rating (0 to 10 scale): 1
[10]; Preemergence, Rate 250 g/ha
  Rape plant response rating: 3
[10]; Preemergence, Rate 500 g/ha
  Rape plant response rating: 5
[10]; Rate 62 g/ha, Postemergence
  Rape plant response rating: 0
[10]; [20]
  Plant response rating, Rape: 2
[11]; [17]
  Plant response rating, Soybean: 5
[11]; [18]
  Plant response rating, Soybean: 6
[11]; [19]
  Plant response rating, Soybean: 0
[11]; Preemergence, Rate 125 g/ha
  Soybean plant response rating (0 to 10 scale): 0
[11]; Preemergence, Rate 250 g/ha
  Soybean plant response rating: 0
[11]; Preemergence, Rate 500 g/ha
  Soybean plant response rating: 0
[11]; Rate 62 g/ha, Postemergence
  Soybean plant response rating: 4
[11]; [20]
  Plant response rating, Soybean: 7
[12]; [17]
  Plant response rating, Sugarbeets: 1
[12]; [18]
  Plant response rating, Sugarbeets: 3
[12]; [19]
  Plant response rating, Sugarbeets: 0
[12]; Preemergence, Rate 125 g/ha
  Sugarbeets plant response rating (0 to 10 scale): 4
[12]; Preemergence, Rate 250 g/ha
  Sugarbeets plant response rating: 7
[12]; Preemergence, Rate 500 g/ha
  Sugarbeets plant response rating: 8
[12]; Rate 62 g/ha, Postemergence
  Sugarbeets plant response rating: 0
[12]; [20]
  Plant response rating, Sugarbeets: 3
[13]; [17]
  Plant response rating, Velvetleaf: 0
[13]; [18]
  Plant response rating, Velvetleaf: 3
[13]; [19]
  Plant response rating, Velvetleaf: 1
[13]; Preemergence, Rate 125 g/ha
  Velvetleaf plant response rating (0 to 10 scale): 5
[13]; Preemergence, Rate 250 g/ha
  Velvetleaf plant response rating: 6
[13]; Preemergence, Rate 500 g/ha
  Velvetleaf plant response rating: 7
[13]; Rate 62 g/ha, Postemergence
  Velvetleaf plant response rating: 0
[13]; [20]
  Plant response rating, Velvetleaf: 6
[14]; [17]
  Plant response rating, Wheat: 4
[14]; [18]
  Plant response rating, Wheat: 5
[14]; [19]
  Plant response rating, Wheat: 3
[14]; Preemergence, Rate 125 g/ha
  Wheat plant response rating (0 to 10 scale): 5
[14]; Preemergence, Rate 250 g/ha
  Wheat plant response rating: 6
[14]; Preemergence, Rate 500 g/ha
  Wheat plant response rating: 7
[14]; Rate 62 g/ha, Postemergence
  Wheat plant response rating: 0
[14]; [20]
  Plant response rating, Wheat: 6
[15]; [17]
  Plant response rating, Wild oats: 0
[15]; [18]
  Plant response rating, Wild oats: 1
[15]; [19]
  Plant response rating, Wild oats: 5
[15]; Preemergence, Rate 125 g/ha
  Wild oats plant response rating (0 to 10 scale): 9
[15]; Preemergence, Rate 250 g/ha
  Wild oats plant response rating: 10
[15]; Preemergence, Rate 500 g/ha
  Wild oats plant response rating: 10
[15]; Rate 62 g/ha, Postemergence
  Wild oats plant response rating: 0
[15]; [20]
  Plant response rating, Wild oats: 7
[16]; [17]
  Plant response rating, Nutsedge: 0
[16]; [18]
  Plant response rating, Nutsedge: 0
[16]; [19]
  Plant response rating, Nutsedge: 0
[16]; Preemergence, Rate 125 g/ha
  Nutsedge plant response rating (0 to 10 scale): 0
[16]; Preemergence, Rate 250 g/ha
  Nutsedge plant response rating: 0
[16]; Preemergence, Rate 500 g/ha
  Nutsedge plant response rating: 2
[16]; Rate 62 g/ha, Postemergence
  Nutsedge plant response rating: 0
[16]; [20]
  Plant response rating, Nutsedge: 0

Source: patent publication US6737383B1, “Herbicidal oxadiazolidines” (priority 1999, dated 2004)
